From patent US7332279B2 (Glycozym APS, priority 1999, dated 2008)
Read-outs that look alike come from different tables or passages of the source.

What was measured:
β3Gal-T5 [1] = target: T1, β3Gal-T5 (Homo sapiens, UniProt Q9Y2C3, M85T); assay: Galactosyltransferase assay, partially purified secreted recombinant β3Gal-T5, saccharide acceptors; format: biochemical; details: for β3Gal-T5 activity, substrate concentration 1 mM: acceptor 1 mM; for β3Gal-T5 activity, substrate concentration 5 mM: acceptor 5 mM; for donor substrate utilisation by β3Gal-T5: with the acceptor substrates tested (data not shown)
T1 construct: designed to exclude the hydrophobic transmembrane segment and to encode amino acid residues 25-310; secretion signal of vector pAcGP67B (gp67); made in house; host or cells: baculovirus; Sf9 cells (media) and High Five cells (serum-free medium, partially purified)
T1 sequence (Q9Y2C3 25-310 M85T): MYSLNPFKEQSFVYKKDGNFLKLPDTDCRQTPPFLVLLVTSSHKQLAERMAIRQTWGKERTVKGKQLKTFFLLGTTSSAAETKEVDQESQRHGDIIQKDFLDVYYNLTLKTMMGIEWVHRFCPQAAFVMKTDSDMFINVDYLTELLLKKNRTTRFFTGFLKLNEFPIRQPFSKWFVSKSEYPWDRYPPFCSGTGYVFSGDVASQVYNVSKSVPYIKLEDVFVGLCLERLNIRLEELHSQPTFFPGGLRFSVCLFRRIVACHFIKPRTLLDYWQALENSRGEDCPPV
From the text: PCR product was cloned into the BamHI site of pAcGP67B (Pharmingen). […] This PCR product was cloned into the BamHI site of pVL1193 (Pharmingen). Both soluble and full length constructs were fully sequenced to confirm fidelity. Plasmids […]5-full were co-transfected with Baculo-GoldTM DNA (Pharmingen) as described previously (Bennett, […]. and Clausen, H. cDNA cloning and expression of a novel human UDP-N-acetyl-alpha-D-galactosamine. Polypeptide N-acetyl-galactosaminyl-transferase, GalNAc-T3. J. Biol. Chem. 271:17006-17012, 1996). Recombinant Baculo-virus were obtained after two successive amplifications in Sf9 cells grown in serum-containing medium, and titers of virus were estimated by titration in 24-well plates with monitoring of enzyme activities. […] J. Biol. […] J. Biol. […] Polypeptide N-acetyl-galactosaminyl-transferase, GalNAc-T3. J. Biol. Chem. 271:17006-17012, 1996). For large scale expression amplified virus was used to infect High FiveTM cells grown in serum-free media (Invitrogen) in upright roller bottles shaking at 140 rpm and 27° C. The kinetic properties were determined with partially purified, secreted forms of the enzymes. Semipurification of enzymes from serum-free medium of infected High-FiveTM cells was performed by sequential Amberlite, DEAE-Sephacel and 5-Sepharose chromatography as described previously ([…]., et al. […] J. Biol. Chem. 272:23503-23514, 1997). Comparisons of enzymes were performed relatively to the activity obtained with βGlcNAc-Bz1 (Tables II and III). Full length enzymes were assayed with 1% Triton CF54 homogenates of washed cells. […] Reaction products were quantified by Dowex-1 chromatography. […] P. and Clausen, H. […] J. Biol. Chem. 273:29295-29305, 1998). The transfer of Gal was evaluated after acid precipitation by filtration through Whatman GF/C glass fibre filters. […] Assays with glycolipid acceptors were conducted as previously described (Holmes, E. H. […] Arch Biochem Biophys 270:630-646, 1989) in reaction mixtures containing 2.5 μmol HEPES buffer, pH 7.2, μmol MnCl2, 100 μg taurodeoxycholate or Triton CF-54, 20 μg acceptor glycolipid, 15 nmol UDP-[^14C]-galactose (13,000 cpm/nmol) and enzyme in a total volume of 100 μl. Conditions for incubation and product isolation were as previously described (Id.).

β3Gal-T5 [2] = target: T1, β3Gal-T5; assay: Galactosyltransferase assay with glycolipid acceptors, β3Gal-T5; format: biochemical; details: for β3Gal-T5 activity with glycolipid acceptor, Triton CF-54: 100 μg Triton CF-54/100 μl; for β3Gal-T5 activity with glycolipid acceptor, Triton CF-54 / β3Gal-T5 activity with glycolipid acceptor, TDOC: 20 μg glycolipid; for β3Gal-T5 activity with glycolipid acceptor, TDOC: 100 μg taurodeoxycholate/100 μl
Experimental: The kinetic properties were determined with partially purified, secreted forms of the enzymes. Semipurification of enzymes from serum-free medium of infected High-Five™ cells was performed by sequential Amberlite, DEAE-Sephacel and 5-Sepharose chromatography as described previously (Wandall, H. H., Hassan, H., Mirgorodskaya, E., et al. Substrate specificities of three. members of the human UDP-N-acetyl-alpha-D-galactosamine:Polypeptide Nacetylgalactosaminyltransferase family, GalNAc-T1, -T2, and -T3. J. Biol. Chem. 272:23503-23514, 1997). Comparisons of enzymes were performed relatively to the activity obtained with βGlcNAc-Bz1 (Tables II and III). Full length enzymes were assayed with 1% Triton CF54 homogenates of washed cells. Enzyme assays were performed in 50 μl total reaction mixtures containing 25 mM Cacodylate (pH 7.5), 10 mM MnCl2, 0.25% Triton X-100, 100 μM UDP-[^14C]-Gal (2,600 cpm/nmol) (Amersham), and varying concentrations of acceptor substrates (Sigma) (see Table I for structures). Reaction products were quantified by Dowex-1 chromatography. […] The transfer of Gal was evaluated after acid precipitation by filtration through Whatman GF/C glass fibre filters. […] Assays with glycolipid acceptors were conducted as previously described (Holmes, E. H. Characterization and membrane organization of beta 1-3- and beta 1-4-galactosyltransferases from human colonic adenocarcinoma cell lines Cob 205 and SW403: basis for preferential synthesis of type 1 chain lacto-series carbohydrate structures. Arch Biochem Biophys 270:630-646, 1989) in reaction mixtures containing 2.5 μmol HEPES buffer, pH 7.2, μmol MnCl2, 100 μg taurodeoxycholate or Triton CF-54, 20 μg acceptor glycolipid, 15 nmol UDP-[^14C]-galactose (13,000 cpm/nmol) and enzyme in a total volume of 100 μl. Conditions for incubation and product isolation were as previously described (Id.).

| Molecule | β3Gal-T5 activity, substrate concentration 1 mM (β3Gal-T5 [1]) [nmol/min/mL] | β3Gal-T5 activity, substrate concentration 5 mM (β3Gal-T5 [1]) [nmol/min/mL] | also measured |
| --- | --- | --- | --- |
| CO[C@@H]1O[C@H](CO)[C@H](O)[C@H](O[C@@H]2O[C@H](CO)[C@@H](O)[C@H](O)[C@H]2NC(C)=O)[C@H]1O [β-D-GlcNAc-(1–3)-β-D-Gal-1-Me] | 27.4 | 87.4 | Vmax (β3Gal-T5 [1]; Table V): 972.9 pmol/min; Km (β3Gal-T5 [1]; Table V, read-out: Km): 1800 µM; Km (β3Gal-T5 [1]; acceptor substrate, read-out: apparent Km of β3Gal-T5): 1800 µM |
| CC(=O)N[C@H]1[C@@H](OP(=O)(O)OP(=O)(O)OC[C@H]2O[C@@H](n3ccc(=O)[nH]c3=O)[C@H](O)[C@@H]2O)O[C@H](CO)[C@H](O)[C@@H]1O [UDP-GalNAc] |  |  | donor substrate utilisation by β3Gal-T5 (β3Gal-T5 [1]): did not utilize |
| O=[N+]([O-])c1ccccc1O[C@@H]1O[C@H](CO)[C@H](O)[C@H](O)[C@H]1O [β-D-Gal-1-o-Nph] | 0.0 | 0.0 |  |
| O=[N+]([O-])c1ccccc1O[C@H]1O[C@H](CO)[C@H](O)[C@H](O)[C@H]1O [α-D-Gal-1-o-Nph] | 0.0 | 0.0 |  |
| COC1OC(COC2OC(CO)C(O)C(O)C2NC(C)=O)C(O)C(O)C1O [β-D-GlcNAc-(1–6)-α-D-Man-1-Me] | 4.0 | 13.0 |  |
| CC(=O)N[C@H]1[C@H](Oc2ccc([N+](=O)[O-])cc2)O[C@H](CO)[C@@H](O)[C@@H]1O [β-D-GlcNAc-1-p-Nph] | 2.1 | 6.9 |  |
| GalNAcβ1-3Galα1-4Galβ1-4Glcβ1-Cer [Gβ4] |  |  | β3Gal-T5 activity with glycolipid acceptor, Triton CF-54 (β3Gal-T5 [2]): 0.09 µmol/h/mg; β3Gal-T5 activity with glycolipid acceptor, TDOC (β3Gal-T5 [2]): 0.6 µmol/h/mg |
| CC(=O)N[C@H]1[C@@H](OCc2ccccc2)O[C@H](CO)[C@H](O)[C@@H]1O [α-D-GalNAc-Bzl] | 0.0 | 0.0 |  |
| Cc1cc(=O)oc2cc(O[C@@H]3OC[C@@H](O[C@@H]4O[C@H](CO)[C@H](O)[C@H](O)[C@H]4O)[C@H](O)[C@H]3O)ccc12 [β-Gal-(1–4)-β-D-Xyl-1-Me-umb] | 0.0 | 0.0 |  |
| Glcβ1-Cer [GlcCer] |  |  | β3Gal-T5 activity with glycolipid acceptor, TDOC (β3Gal-T5 [2]): 0.04 µmol/h/mg |
| CC(=O)N[C@@H]1[C@@H](O)[C@H](O)[C@@H](CO)O[C@H]1Sc1ccc([N+](=O)[O-])cc1 [β-D-GlcNAc-1-thio-p-Nph] | 1.1 | 3.4 |  |
| GalNAcβ1-4Galβ1-4Glcβ1-Cer [Gg3] |  |  | β3Gal-T5 activity with glycolipid acceptor, Triton CF-54 (β3Gal-T5 [2]): 0.005 µmol/h/mg; β3Gal-T5 activity with glycolipid acceptor, TDOC (β3Gal-T5 [2]): 0.09 µmol/h/mg |
| CC(=O)N[C@H]1[C@@H](OP(=O)(O)OP(=O)(O)OC[C@H]2O[C@@H](n3ccc(=O)[nH]c3=O)[C@H](O)[C@@H]2O)O[C@H](CO)[C@@H](O)[C@@H]1O [UDPGlcNAc] |  |  | donor substrate utilisation by β3Gal-T5 (β3Gal-T5 [1]): did not utilize |
| CC(=O)N[C@H]1[C@H](Oc2ccc3c(C)cc(=O)oc3c2)O[C@H](CO)[C@@H](O)[C@@H]1O [β-D-GlcNAc-Me-umb] | 2.6 | 7.5 |  |
| CC(=O)N[C@H]1[C@H](Oc2ccc3c(C)cc(=O)oc3c2)O[C@H](CO)[C@H](O)[C@@H]1O [β-D-GalNAc-Me-umb] | 0.0 | 0.0 |  |
| CC(=O)N[C@@H]1[C@@H](O)[C@H](O)[C@@H](CO)O[C@@H]1O [D-GIcNAc] | 0.5 | 1.2 |  |
| Cc1cc(=O)oc2cc(O[C@@H]3O[C@H](CO)[C@@H](O)[C@H](O)[C@H]3O)ccc12 [β-D-Glc-Me-umb] | 0.0 | 0.0 |  |
| GlcNAcβ1-3Galβ1-4G1cNAcβ1-3Galβ1-4Glcβ1-Cer [nLC5] |  |  | activity, fold lower than with Lc3 (β3Gal-T5 [2]): ~3 fold; β3Gal-T5 activity with glycolipid acceptor, Triton CF-54 (β3Gal-T5 [2]): 0.4 µmol/h/mg; β3Gal-T5 activity with glycolipid acceptor, TDOC (β3Gal-T5 [2]): 1.6 µmol/h/mg |
| CC(=O)N[C@H]1[C@@H](OCc2ccccc2)O[C@H](CO)[C@@H](O)[C@@H]1O [α-D-GlcNAc-Bzl] | 0.0 | 0.0 |  |
| CC(=O)NC1C(OC2C(OCC3OC(O)C(O)C(OC4OC(CO)C(O)C(O)C4OC4OC(CO)C(O)C(O)C4NC(C)=O)C3O)OC(CO)C(O)C2O)OC(CO)C(O)C1O [β-D-GlcNAc-(1–2)-α-D-Man-(1–3)-[β-D-GlcNAc-(1–2)-α-D-Man-(1–6)-]D-Man] | 0.0 | 0.0 |  |
| CC(=O)NC1C(OC2C(O)OC(CO)C(O)C2O)OC(CO)C(O)C1O [β-D-GlcNAc-(1–2)-α-D-Man] | 0.0 | 3.0 |  |
